As a reminder, the DC50 is the concentration at which degradation of the target reaches its halfway point. A word on the Dmax: it is the largest share of the target that was removed.

The target of the assay is T1, BRM (Homo sapiens, UniProt P51531).
T1 construct: In-Cell Western Screen of BRM Degradation in SW1573 Cells; endogenous in cells; host or cells: SW1573
The experiment in a line: In-cell Western screen of BRM degradation in SW1573 cells (Dmax and DC50). It counts as cell-based. The gist of the method:
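BRM levels were read by LI-COR in-cell Western after two-channel (800/680 nm) immunostaining of fixed, Triton-permeabilised SW1573 cells.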

Setting [1] is: BRM degradation, read-out: BRM DC50.
[2] abbreviates: BRM degradation, SW1573 cells, Table 2D, read-out: *DC50.
[3] abbreviates: BRM degradation, SW1573 cells, read-out: DC50.
The mark [4] stands for this setting: SW1573, % degraded, when tested at the top concentration of between 0.3 and 10 μM, read-out: BRM Dmax (%).
Setting [5] is: target protein degradation, read-out: BRM DC50.

SMILES strings stand for the structures. Like-named read-outs stand apart in the source and are kept apart here.

T1 sequence (P51531 whole entry): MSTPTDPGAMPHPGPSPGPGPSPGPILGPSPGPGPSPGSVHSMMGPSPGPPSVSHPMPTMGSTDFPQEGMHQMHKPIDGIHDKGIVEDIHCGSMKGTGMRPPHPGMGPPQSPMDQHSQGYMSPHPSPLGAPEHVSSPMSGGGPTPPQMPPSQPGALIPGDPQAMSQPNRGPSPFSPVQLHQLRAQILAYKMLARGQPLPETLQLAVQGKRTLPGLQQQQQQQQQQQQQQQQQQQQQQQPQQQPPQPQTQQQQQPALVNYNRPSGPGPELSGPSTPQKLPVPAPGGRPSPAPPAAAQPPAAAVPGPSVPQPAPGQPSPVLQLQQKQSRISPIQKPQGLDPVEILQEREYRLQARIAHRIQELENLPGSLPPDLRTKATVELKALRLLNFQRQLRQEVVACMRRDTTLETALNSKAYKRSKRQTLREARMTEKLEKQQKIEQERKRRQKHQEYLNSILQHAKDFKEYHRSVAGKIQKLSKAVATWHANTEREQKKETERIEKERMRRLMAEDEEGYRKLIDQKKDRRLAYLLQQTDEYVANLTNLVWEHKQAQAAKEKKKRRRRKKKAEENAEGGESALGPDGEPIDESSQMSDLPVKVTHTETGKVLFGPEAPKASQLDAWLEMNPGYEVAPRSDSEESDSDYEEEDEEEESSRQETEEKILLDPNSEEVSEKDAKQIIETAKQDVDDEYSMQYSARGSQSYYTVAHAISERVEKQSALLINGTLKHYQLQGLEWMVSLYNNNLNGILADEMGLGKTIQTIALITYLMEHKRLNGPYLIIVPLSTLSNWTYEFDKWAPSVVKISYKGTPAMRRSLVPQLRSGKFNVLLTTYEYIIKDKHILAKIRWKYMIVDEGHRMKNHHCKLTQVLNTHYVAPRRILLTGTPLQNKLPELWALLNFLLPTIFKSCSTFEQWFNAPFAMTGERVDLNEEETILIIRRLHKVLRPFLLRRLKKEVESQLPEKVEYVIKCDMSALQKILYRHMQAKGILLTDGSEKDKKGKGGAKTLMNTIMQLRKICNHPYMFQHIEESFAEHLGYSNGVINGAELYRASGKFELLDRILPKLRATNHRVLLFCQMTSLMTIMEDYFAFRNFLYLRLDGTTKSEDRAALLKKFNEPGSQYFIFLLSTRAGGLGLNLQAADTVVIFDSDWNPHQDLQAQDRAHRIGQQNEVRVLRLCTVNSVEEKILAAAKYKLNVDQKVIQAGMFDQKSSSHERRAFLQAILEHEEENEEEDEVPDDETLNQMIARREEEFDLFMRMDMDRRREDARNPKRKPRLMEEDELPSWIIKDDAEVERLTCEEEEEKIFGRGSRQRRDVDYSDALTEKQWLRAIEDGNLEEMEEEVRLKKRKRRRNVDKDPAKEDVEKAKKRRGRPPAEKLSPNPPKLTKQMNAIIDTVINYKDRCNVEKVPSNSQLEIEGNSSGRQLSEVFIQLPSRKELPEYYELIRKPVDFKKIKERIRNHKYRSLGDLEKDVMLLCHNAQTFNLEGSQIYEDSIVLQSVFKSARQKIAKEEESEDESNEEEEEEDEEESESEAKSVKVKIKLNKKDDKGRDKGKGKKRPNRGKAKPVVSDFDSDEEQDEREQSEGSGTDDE

On to `Cc1cc([C@H](C(=O)N2C[C@H](O)C[C@H]2C(=O)N[C@@H](C)c2ccc(-c3scnc3C)cc2)[C@@H](C)COCCCOc2cc(N3C4CCC3CN(c3cc(-c5ccccc5O)nnc3N)C4)ccn2)on1` [compound 495, (2S,4R)-1-((2R,3R)-4-(3-((4-(3-(3-amino-6-(2-hydroxyphenyl)pyridazin-4-yl)-3,8-diazabicyclo[3.2.1]octan-8-yl)pyridin-2-yl)oxy)propoxy)-3-methyl-2-(3-methylisoxazol-5-yl)butanoyl)-4-hydroxy-N-((S)-1-(4-(4-methylthiazol-5-yl)phenyl)ethyl)pyrrolidine-2-carboxamide], for which the half-maximal degradation concentration (DC50) under setting [1] is > 30 nM.

As for `Cc1ncsc1-c1ccc([C@H](C)NC(=O)[C@@H]2C[C@@H](O)CN2C(=O)[C@@H](c2cc(N3CCC(OC4CCN([C@H]5C[C@H](CN6CCOC7(CCN(c8cc(-c9ccccc9O)nnc8N)CC7)C6)C5)CC4)CC3)no2)C(C)C)cc1` [compound 616, (2S,4R)-1-((R)-2-(3-(4-((1-((1r,3R)-3-((9-(3-amino-6-(2-hydroxyphenyl)pyridazin-4-yl)-1-oxa-4,9-diazaspiro[5.5]undecan-4-yl)methyl)cyclobutyl)piperidin-4-yl)oxy)piperidin-1-yl)isoxazol-5-yl)-3-methylbutanoyl)-4-hydroxy-N-((S)-1-(4-(4-methylthiazol-5-yl)phenyl)ethyl)pyrrolidine-2-carboxamide], the Dmax (BRM degradation, SW1573 cells, Table 2D, read-out: **Dmax (%) (% degraded)) was > 75%. In addition, the half-maximal degradation concentration (DC50) under setting [2] is < 2.5 nM.

Regarding `Cc1ncsc1-c1ccc([C@H](C)NC(=O)[C@@H]2C[C@@H](O)CN2C(=O)[C@@H](c2cc(OCCN3CCC(CN4CC(Oc5cc(N6C7CCC6CN(c6cc(-c8ccccc8O)nnc6N)C7)ccn5)C4)CC3)no2)C(C)C)cc1` [compound 406, (2S,4R)-1-((2R)-2-(3-(2-(4-((3-((4-(3-(3-amino-6-(2-hydroxyphenyl)pyridazin-4-yl)-3,8-diazabicyclo[3.2.1]octan-8-yl)pyridin-2-yl)oxy)azetidin-1-yl)methyl)piperidin-1-yl)ethoxy)isoxazol-5-yl)-3-methylbutanoyl)-4-hydroxy-N-((S)-1-(4-(4-methylthiazol-5-yl)phenyl)ethyl)pyrrolidine-2-carboxamide], where the note is “degradation of BRM, read-out: BRM DC50”, the DC50 was > 30 nM.

In the case of `Cc1ncsc1-c1cnc([C@H](C)NC(=O)[C@@H]2C[C@@H](O)CN2C(=O)[C@H](c2cc(N3CCC(CN4CCC(O[C@H]5C[C@H](Oc6cc(N7C8CCC7CN(c7cc(-c9ccccc9O)nnc7N)C8)ccn6)C5)CC4)CC3)no2)C(C)C)cn1` [compound 589, (2S,4R)-1-((2S)-2-(3-(4-((4-((1r,3r)-3-((4-(3-(3-amino-6-(2-hydroxyphenyl)pyridazin-4-yl)-3,8-diazabicyclo[3.2.1]octan-8-yl)pyridin-2-yl)oxy)cyclobutoxy)piperidin-1-yl)methyl)piperidin-1-yl)isoxazol-5-yl)-3-methylbutanoyl)-4-hydroxy-N-((S)-1-(5-(4-methylthiazol-5-yl)pyrazin-2-yl)ethyl)pyrrolidine-2-carboxamide], the DC50 under setting [2] is > 30 nM.

As to `Cc1cc([C@@H](C(=O)N2C[C@H](O)C[C@H]2C(=O)N[C@H](COCCCCCc2cc(-c3ccccc3O)nnc2N)c2ccc(-c3scnc3C)cc2)C(C)C)on1` [compound 527, (2S,4R)-N-((S)-2-((5-(3-amino-6-(2-hydroxyphenyl)pyridazin-4-yl)pentyl)oxy)-1-(4-(4-methylthiazol-5-yl)phenyl)ethyl)-4-hydroxy-1-((S)-3-methyl-2-(3-methylisoxazol-5-yl)butanoyl)pyrrolidine-2-carboxamide], under setting [1], the 50% degradation concentration (DC50) was > 30 nM.

For `CC(C)[C@H](C(=O)N1C[C@H](O)C[C@H]1C(=O)N[C@@H](C)c1ccc(-n2ccnc2CO)cc1)c1cc(OCC#Cc2ccc(O[C@H]3C[C@H](Oc4cc(N5C6CCC5CN(c5cc(-c7ccccc7O)nnc5N)C6)ccn4)C3)cn2)no1` [compound 284, (2S,4R)-1-((2S)-2-(3-((3-(5-((1r,3S)-3-((4-(3-(3-amino-6-(2-hydroxyphenyl)pyridazin-4-yl)-3,8-diazabicyclo[3.2.1]octan-8-yl)pyridin-2-yl)oxy)cyclobutoxy)pyridin-2-yl)prop-2-yn-1-yl)oxy)isoxazol-5-yl)-3-methylbutanoyl)-4-hydroxy-N-((S)-1-(4-(2-(hydroxymethyl)-1H-imidazol-1-yl)phenyl)ethyl)pyrrolidine-2-carboxamide], the DC50 under setting [3] fell in the range of 10 to 30 nM. Further, the Dmax (BRM degradation, SW1573 cells, tested at the top concentration of between 0.3 and 10 μM, read-out: Dmax (%) (% degraded)) was > 75%.

Turning to `Cc1ncsc1-c1ccc([C@H](C)NC(=O)[C@@H]2C[C@@H](O)CN2C(=O)[C@@H](c2cc(OCCN3C4CC3CN(CCOc3cc(N5C6CCC5CN(c5cc(-c7ccccc7O)nnc5N)C6)ccn3)C4)no2)C(C)C)cc1` [compound 132, (2S,4R)-1-((2R)-2-(3-(2-(3-(2-((4-(3-(3-amino-6-(2-hydroxyphenyl)pyridazin-4-yl)-3,8-diazabicyclo[3.2.1]octan-8-yl)pyridin-2-yl)oxy)ethyl)-3,6-diazabicyclo[3.1.1]heptan-6-yl)ethoxy)isoxazol-5-yl)-3-methylbutanoyl)-4-hydroxy-N-((S)-1-(4-(4-methylthiazol-5-yl)phenyl)ethyl)pyrrolidine-2-carboxamide], under setting [3], the 50% degradation concentration (DC50) lay in the range of 2.5 to 10 nM. For the same molecule, the maximal degradation (Dmax) (BRM degradation, SW1573 cells, when tested at the top concentration of between 0.3 and 10 μM, read-out: Dmax (%) (% degraded)) is > 75%.

Turning to `Cc1ncsc1-c1ccc([C@H](C)NC(=O)[C@@H]2C[C@@H](O)CN2C(=O)[C@@H](c2cc(OCCN3CCC(O[C@H]4C[C@H](Oc5nccc(N6C7CCC6CN(c6cc(-c8ccccc8O)nnc6N)C7)n5)C4)CC3)no2)C(C)C)cc1` [compound 464, (2S,4R)-1-((2R)-2-(3-(2-(4-((1r,3R)-3-((4-(3-(3-amino-6-(2-hydroxyphenyl)pyridazin-4-yl)-3,8-diazabicyclo[3.2.1]octan-8-yl)pyrimidin-2-yl)oxy)cyclobutoxy)piperidin-1-yl)ethoxy)isoxazol-5-yl)-3-methylbutanoyl)-4-hydroxy-N-((S)-1-(4-(4-methylthiazol-5-yl)phenyl)ethyl)pyrrolidine-2-carboxamide], the maximal degradation (Dmax) under setting [4] is > 75%. For the same molecule, under setting [5], the DC50 was < 2.5 nM.

Consider `Cc1nccn1-c1ccc([C@H](C)NC(=O)[C@@H]2C[C@@H](O)CN2C(=O)[C@@H](c2cc(N3CCC(OC4CCN(C[C@H]5C[C@H](Oc6cc(N7C8CCC7CN(c7cc(-c9ccccc9O)nnc7N)C8)ccn6)C5)CC4)CC3)no2)C(C)C)cc1` [compound 478, (2S,4R)-1-((2R)-2-(3-(4-((1-(((1r,3r)-3-((4-(3-(3-amino-6-(2-hydroxyphenyl)pyridazin-4-yl)-3,8-diazabicyclo[3.2.1]octan-8-yl)pyridin-2-yl)oxy)cyclobutyl)methyl)piperidin-4-yl)oxy)piperidin-1-yl)isoxazol-5-yl)-3-methylbutanoyl)-4-hydroxy-N-((S)-1-(4-(2-methyl-1H-imidazol-1-yl)phenyl)ethyl)pyrrolidine-2-carboxamide], for which the Dmax under setting [4] was > 75%. Under setting [5], the DC50 was < 2.5 nM.

These data come from patent publication US12539292B2, “BRM targeting compounds and associated methods of use” (Arvinas Operations, Inc., priority 2018, dated 2026).
